Reference: US20240132484A1, “BROAD SPECTRUM ANTIVIRAL COMPOUNDS TARGETING THE SKI COMPLEX” (priority 2020, published 2024)
Where “and” joins values, the source holds several entries; their conditions need not be identical. Identical values can stand only once. Like-named read-outs stand apart in the source and are kept apart here.

Key:
[1] = system: cells (nuclei count); conditions: for Relative cell count to DMSO controls, Average 1 μM / Relative cell count to DMSO controls, Average 5 μM / Relative cell count to DMSO controls, Average 10 μM / Relative cell count to DMSO controls, Average 25 μM / Relative cell count to DMSO controls, Average 50 μM: toxicity data, 100=DMSO control; for Relative cell count to DMSO controls, Average (for correlation analysis): average value over the 5 tested concentrations (1 to 50 uM); for Toxicity Data, Average, Mean: average of Exp 1-3 (SMW475, SMW477, SMW478)
[2] = system: SARS2; assay type: cell-based, SARS-CoV-2; conditions: for Percentage Inhibition Average 1 μM / Screening data (Relative infection to DMSO controls) Average 1 μM: SARS2, 1 μM; for Screening data (Relative infection to DMSO controls) Average 1 μM / Screening data (Relative infection to DMSO controls) Average 5 μM / Screening data (Relative infection to DMSO controls) Average 10 μM / Screening data (Relative infection to DMSO controls) Average 25 μM / Screening data (Relative infection to DMSO controls) Average 50 μM / Average (relative infection to DMSO over the 5 tested concentrations): 100=DMSO control; for Percentage Inhibition Average 5 μM / Screening data (Relative infection to DMSO controls) Average 5 μM: SARS2, 5 μM; for Percentage Inhibition Average 10 μM / Screening data (Relative infection to DMSO controls) Average 10 μM: SARS2, 10 μM; for Percentage Inhibition Average 25 μM / Screening data (Relative infection to DMSO controls) Average 25 μM: SARS2, 25 μM; for Percentage Inhibition Average 50 μM / Screening data (Relative infection to DMSO controls) Average 50 μM: SARS2, 50 μM; for Average (relative infection to DMSO over the 5 tested concentrations): SARS2, average over 1 to 50 uM; for Infection Data, Average, Mean: average of Exp 1-3 (SMW475, SMW477, SMW478)
[3] = Exp 3 (SMW478), 5 uM, Greiner Celigo plates
[4] = Exp 3 (SMW478), 10 uM, Greiner Celigo plates
[5] = Exp 3 (SMW478), 50 uM, Greiner Celigo plates

Structure (SMILES) | Relative cell count to DMSO controls, Average 1 μM [1] | Relative cell count to DMSO controls, Average 5 μM [1] | Relative cell count to DMSO controls, Average 10 μM [1] | Relative cell count to DMSO controls, Average 25 μM [1] | Relative cell count to DMSO controls, Average 50 μM [1] | Relative cell count to DMSO controls, Average (for correlation analysis) [1] | Percentage Inhibition Average 1 μM [2] | Screening data (Relative infection to DMSO controls) Average 1 μM [2] | Percentage Inhibition Average 5 μM [2] | Screening data (Relative infection to DMSO controls) Average 5 μM [2] | Percentage Inhibition Average 10 μM [2] | Screening data (Relative infection to DMSO controls) Average 10 μM [2] | Percentage Inhibition Average 25 μM [2] | Screening data (Relative infection to DMSO controls) Average 25 μM [2] | Percentage Inhibition Average 50 μM [2] | Screening data (Relative infection to DMSO controls) Average 50 μM [2] | Average (relative infection to DMSO over the 5 tested concentrations) [2] | Toxicity Data, Average, Mean ([1]; n 9, 1 uM) | Toxicity Data, Average, Mean ([1]; n 9, 5 uM) | Toxicity Data, Average, Mean ([1]; n 9, 10 uM) | also measured
CN1CCN(CC(O)COc2cccc(N3CCCCC3)c2CNCCc2ccccc2F)CC1 (stereo not drawn) [SILCS10] | 131.94 | 141.21 | 131 | 50.46 | 84.08 | 107.74 | 47.40% | 52.60 | 56.27% | 43.73 | 58.42% | 41.58 | 66.00% | 34.00 | 93.61% | 6.39 | 35.66 | – | – | – | Toxicity Data, Average, Mean (relative to DMSO control) ([1]; Average of Exp 1-3, 1 uM): 131.94%; Toxicity Data, Average, Mean (relative to DMSO control) ([1]; Average of Exp 1-3, 5 uM): 141.21%; Toxicity Data, Average, Mean (relative to DMSO control) ([1]; Average of Exp 1-3, 10 uM): 131.00%; Toxicity Data, Average, Mean (relative to DMSO control) ([1]; Average of Exp 1-3, 25 uM): 50.46%; Toxicity Data, Average, Mean (relative to DMSO control) ([1]; Average of Exp 1-3, 50 uM): 84.08%; SARS2 antiviral activity [2]: strong activity
COC(=O)c1csc(CN(CCN(C)C)Cc2cccs2)c1 [SILCS29] | 104.12 | 110.81 | 90.99 | 101.15 | 67.81 | 94.98 | 15.78% | 84.22 | 35.17% | 64.83 | 7.20% | 92.80 | 67.28% | 32.72 | 93.68% | 6.32 | 56.18 | 104.12% | 110.81% | 90.99% | Toxicity Data, Average, Mean ([1]; n 9, 25 uM): 101.15%; Toxicity Data, Average, Mean ([1]; n 9, 50 uM): 67.81%; Percentage Infection Relative to Appropriate DMSO Control with Avg Background Subtraction ([2]; Exp 1 (SMW475), 5 uM, single well): 1.25% and −0.49% and 2.25%; Percentage Infection Relative to Appropriate DMSO Control with Avg Background Subtraction ([2]; Exp 1 (SMW475), 10 uM, single well): 57.43% and 82.75% and 79.22%; Percentage Infection Relative to Appropriate DMSO Control with Avg Background Subtraction ([2]; Exp 1 (SMW475), 25 uM, single well): 13.47% and 21.51% and 26.64%; Percentage Infection Relative to Appropriate DMSO Control with Avg Background Subtraction ([2]; Exp 1 (SMW475), 50 uM, single well): 13.24% and 10.68% and 10.82%; Percentage Infection Relative to Appropriate DMSO Control with Avg Background Subtraction ([2]; Exp 2 (SMW477), 1 uM, single well): 96.79% and 118.82% and 112.77%; Percentage Infection Relative to Appropriate DMSO Control with Avg Background Subtraction ([2]; Exp 2 (SMW477), 5 uM, single well): 84.54% and 117.80% and 116.09%; Percentage Infection Relative to Appropriate DMSO Control with Avg Background Subtraction ([2]; Exp 2 (SMW477), 10 uM, single well): 78.23% and 124.37% and 115.30%; Percentage Infection Relative to Appropriate DMSO Control with Avg Background Subtraction ([2]; Exp 2 (SMW477), 50 uM, single well): 2.61% and 6.87% and 8.07%; Percentage Infection Relative to Appropriate DMSO Control with Avg Background Subtraction ([2]; Exp 3 (SMW478), 1 uM, Greiner Celigo plates): 97.82% and 84.39% and 100.08%; Percentage Infection Relative to Appropriate DMSO Control with Avg Background Subtraction [2, 3]: 95.72% and 88.47% and 77.81%; Percentage Infection Relative to Appropriate DMSO Control with Avg Background Subtraction [2, 4]: 99.71% and 91.75% and 106.45%; Percentage Infection Relative to Appropriate DMSO Control with Avg Background Subtraction [2, 5]: 6.88% and −1.19% and −1.09%; Infection Data, Average, Mean ([2]; n 9, 1 uM): 84.22%; Infection Data, Average, Mean ([2]; n 9, 5 uM): 64.83%; Infection Data, Average, Mean ([2]; n 9, 10 uM): 92.80%; Infection Data, Average, Mean ([2]; n 9, 25 uM): 32.72%; Infection Data, Average, Mean ([2]; n 9, 50 uM): 6.32%
CCN(CC)CCN(Cc1ccccc1)Cc1ccccn1 [SILCS33] | 118.72 | 94.18 | 80.17 | 85.8 | 59.2 | 87.61 | 28.78% | 71.22 | −9.77% | 109.77 | −20.53% | 120.53 | 24.68% | 75.32 | 39.69% | 60.31 | 87.43 | 118.72% | 94.18% | 80.17% | Toxicity Data, Average, Mean ([1]; n 9, 25 uM): 85.80%; Toxicity Data, Average, Mean ([1]; n 9, 50 uM): 59.20%; Percentage Infection Relative to Appropriate DMSO Control with Avg Background Subtraction ([2]; Exp 1 (SMW475), 1 uM, Greiner Celigo plates): 53.62% and 101.44% and 86.72%; Percentage Infection Relative to Appropriate DMSO Control with Avg Background Subtraction ([2]; Exp 1 (SMW475), 5 uM, Greiner Celigo plates): 69.33% and 82.60% and 84.98%; Percentage Infection Relative to Appropriate DMSO Control with Avg Background Subtraction ([2]; Exp 1 (SMW475), 10 uM, Greiner Celigo plates): 79.81% and 90.19% and 84.97%; Percentage Infection Relative to Appropriate DMSO Control with Avg Background Subtraction ([2]; Exp 1 (SMW475), 50 uM, Greiner Celigo plates): 52.39% and 69.09% and 65.56%; Percentage Infection Relative to Appropriate DMSO Control with Avg Background Subtraction ([2]; Exp 2 (SMW477), 1 uM, Greiner Celigo plates): 120.88% and 113.91% and 111.55%; Percentage Infection Relative to Appropriate DMSO Control with Avg Background Subtraction ([2]; Exp 2 (SMW477), 5 uM, Greiner Celigo plates): 128.80% and 118.55% and 121.74%; Percentage Infection Relative to Appropriate DMSO Control with Avg Background Subtraction ([2]; Exp 2 (SMW477), 10 uM, Greiner Celigo plates): 114.36% and 136.38% and 130.63%; Percentage Infection Relative to Appropriate DMSO Control with Avg Background Subtraction ([2]; Exp 2 (SMW477), 25 uM, Greiner Celigo plates): 73.62% and 97.76% and 95.99%; Percentage Infection Relative to Appropriate DMSO Control with Avg Background Subtraction ([2]; Exp 2 (SMW477), 50 uM, Greiner Celigo plates): 31.41% and 36.50% and 41.52%; Percentage Infection Relative to Appropriate DMSO Control with Avg Background Subtraction [2, 3]: 121.27% and 137.96% and 122.71%; Percentage Infection Relative to Appropriate DMSO Control with Avg Background Subtraction [2, 4]: 159.81% and 126.46% and 162.16%; Percentage Infection Relative to Appropriate DMSO Control with Avg Background Subtraction ([2]; Exp 3 (SMW478), 25 uM, Greiner Celigo plates): 126.24% and 109.99% and 117.46%; Percentage Infection Relative to Appropriate DMSO Control with Avg Background Subtraction [2, 5]: 71.82% and 89.49% and 84.99%; Infection Data, Average, Mean ([2]; n 9, 1 uM): 71.22%; Infection Data, Average, Mean ([2]; n 9, 5 uM): 109.77%; Infection Data, Average, Mean ([2]; n 9, 10 uM): 120.53%; Infection Data, Average, Mean ([2]; n 9, 25 uM): 75.32%; Infection Data, Average, Mean ([2]; n 9, 50 uM): 60.31%
